pIC50: −log10 of the molar value.
Test system: A549
Assay: Cytotoxicity against human A549 cells after 2 days by AlamarBlue assay
Settings: A549, 48 h

Row | Compound | pIC50
1 | COC1=C2C[C@@H](C)C[C@H](OC)[C@H](O)[C@@H](C)/C=C(\C)[C@H](OC(N)=O)[C@@H](OC)/C=C\C=C(/C)C(=O)NC(=CC1=O)C2=O [GELDANAMYCIN] | 6.82
2 | CO[C@H]1[C@@H](OC)C[C@H](C)[C@@H](OC)C2=CC(=O)C=C(NC(=O)/C(C)=C/C=C/[C@H](OC)[C@@H](OC(N)=O)/C(C)=C/[C@@H]1C)C2=O [HERBIMYCIN] | 6.82
